Literature values, collected in US5789395A, “Method of using tetracycline compounds for inhibition of endogenous nitric oxide production” (The Research Foundation of State University of New York, priority 1996, dated 1998).

Experiments:
[1] = test system: cartilage; conditions: 20-50 μg/mL; Cole et al. 1994; cited from earlier work
[2] = test system: dog models of OA; conditions: prophylactic administration; Yu et al. (1992); cited from earlier work
[3] = test system: collagenase; conditions: cited from earlier work
[4] = test system: gelatinase in ROS 17/2.8 osteoblastic cell line; conditions: Vernillo et al. 1993; cited from earlier work
[5] = test system: patients with mild and moderate arthritis; conditions: Tilley et al. 1995; cited from earlier work

SMILES	effect on proteoglycan loss and cell death [1]	severity of OA [2]	anti-collagenase activity [3]	IC50, gelatinase activity [4] [mg/L]	safety and efficacy in arthritis [5]
C[C@H]1c2cccc(O)c2C(O)=C2C(=O)[C@]3(O)C(O)=C(C(N)=O)C(=O)[C@@H](N(C)C)[C@@H]3[C@@H](O)[C@@H]21 [doxycycline]	blocks proteoglycan loss and reduces the cell death associated with proteoglycan loss	markedly reduced the severity of OA	inhibits collagenase activity via direct effects on the enzyme	20 to 30	
CN(C)c1ccc(O)c2c1C[C@H]1C[C@H]3[C@H](N(C)C)C(O)=C(C(N)=O)C(=O)[C@@]3(O)C(O)=C1C2=O [minocycline]					safe and effective for patients with mild and moderate arthritis
